# Non-standard residues stand in square brackets, D forms with d. Residues, ends and D or L forms follow the SMILES beside them. hArg = N=C(N)NCCCC[C@H](N)C(=O)O; Nle = CCCC[C@H](N)C(=O)O
# Test system: cultured rat pituitary cells
# Format: cell-based
Structure (SMILES),secretion of ACTH,secretion of β-endorphin (β-END-LI)
CCCC[C@H](NC(=O)[C@@H](NC(=O)[C@H](CC(C)C)NC(=O)[C@H](CC(=O)O)NC(=O)[C@H](CC(C)C)NC(=O)[C@H](CO)NC(=O)[C@@H](NC(=O)[C@@H]1CCCN1C(=O)[C@@H]1CCCN1C(=O)[C@@H](N)CCC(=O)O)[C@@H](C)CC)[C@@H](C)O)C(=O)N[C@@H](Cc1c[nH]cn1)C(=O)N[C@@H](CC(C)C)C(=O)N[C@@H](CC(C)C)C(=O)N[C@@H](CCCNC(=N)N)C(=O)N[C@@H](CCC(=O)O)C(=O)N[C@H](C(=O)N[C@@H](CC(C)C)C(=O)N[C@@H](CCC(=O)O)C(=O)N[C@@H](CCSC)C(=O)N[C@@H](C)C(=O)N[C@@H](CCCNC(=N)N)C(=O)N[C@@H](C)C(=O)N[C@@H](CCC(=O)O)C(=O)N[C@@H](CCC(N)=O)C(=O)N[C@@H](CC(C)C)C(=O)N[C@@H](C)C(=O)N[C@@H](CCC(=O)O)C(=O)N[C@@H](CCC(N)=O)C(=O)N[C@@H](C)C(=O)N[C@@H](Cc1c[nH]cn1)C(=O)N[C@@H](CO)C(=O)N[C@@H](CC(N)=O)C(=O)N[C@@H](CCCNC(=N)N)C(=O)N[C@@H](CCCNC(=N)N)C(=O)N[C@@H](CC(C)C)C(=O)N[C@@H](CCSC)C(=O)N[C@@H](CCC(=O)O)C(=O)N[C@H](C(=O)N[C@H](C(N)=O)[C@@H](C)CC)[C@@H](C)CC)C(C)C (H-EPPISLDLT[Nle]HLLREVLEMARAEQLAEQAHSNRRLMEII-NH2),stimulates,stimulates
CCCC[C@H](NC(=O)[C@H](CCC(=O)O)NC(=O)[C@H](CCCNC(=N)N)NC(=O)[C@H](CC(C)C)NC(=O)[C@H](CC(C)C)NC(=O)[C@H](Cc1c[nH]cn1)NC(=O)[C@H](Cc1ccccc1)NC(=O)[C@@H](NC(=O)[C@H](CC(C)C)NC(=O)[C@H](CC(=O)O)NC(=O)[C@H](CC(C)C)NC(=O)[C@H](CO)NC(=O)[C@@H](NC(=O)[C@@H]1CCCN1C(=O)[C@@H]1CCCN1C(=O)[C@H](CCC(=O)O)NC(=O)[C@@H](N)CCC(N)=O)[C@@H](C)CC)[C@@H](C)O)C(=O)N[C@@H](CC(C)C)C(=O)N[C@@H](CCC(=O)O)C(=O)N[C@@H](CCSC)C(=O)N[C@H](C(=O)N[C@@H](CCCNC(=N)N)C(=O)N[C@@H](C)C(=O)N[C@@H](CC(=O)O)C(=O)N[C@@H](CCC(N)=O)C(=O)N[C@@H](CC(C)C)C(=O)N[C@@H](C)C(=O)N[C@@H](CCC(N)=O)C(=O)N[C@@H](CCC(N)=O)C(=O)N[C@@H](C)C(=O)N[C@@H](Cc1c[nH]cn1)C(=O)N[C@@H](CO)C(=O)N[C@@H](CC(N)=O)C(=O)N[C@@H](CCCNC(=N)N)C(=O)N[C@@H](CCCNC(=N)N)C(=O)N[C@@H](Cc1ccc(O)cc1)C(=O)N[C@@H](CC(C)C)C(=O)N[C@@H](CC(=O)O)C(=O)N[C@@H](CCC(=O)O)C(=O)N[C@@H](C)C(N)=O)[C@@H](C)O (H-QEPPISLDLTFHLLRE[Nle]LEMTRADQLAQQAHSNRRYLDEA-NH2),stimulates,stimulates
"CCCC[C@H](NC(=O)[C@H](CCC(=O)O)NC(=O)[C@H](CC(C)C)NC(=O)[C@H](CCCC)NC(=O)[C@H](CCC(=O)O)NC(=O)[C@H](CCCNC(=N)N)NC(=O)[C@H](CC(C)C)NC(=O)[C@H](CC(C)C)NC(=O)[C@H](Cc1c[nH]cn1)NC(=O)[C@H](Cc1ccccc1)NC(=O)[C@@H](NC(=O)[C@H](CC(C)C)NC(=O)[C@H](CC(=O)O)NC(=O)[C@H](CC(C)C)NC(=O)[C@H](CO)NC(=O)[C@@H](NC(=O)[C@@H]1CCCN1C(=O)[C@H]1CCCN1)[C@@H](C)CC)[C@@H](C)O)C(=O)N[C@@H](C)C(=O)N[C@@H](CCCNC(=N)N)C(=O)N[C@@H](C)C(=O)N[C@@H](CCC(=O)O)C(=O)N[C@@H](CCC(N)=O)C(=O)N[C@@H](CCC(=O)O)C(=O)N[C@@H](C)C(=O)N[C@@H](CCC(=O)O)C(=O)N[C@@H](CCC(N)=O)C(=O)N[C@@H](C)C(=O)N[C@@H](C)C(=O)N[C@@H](CC(C)C)C(=O)N[C@@H](CC(N)=O)C(=O)N[C@@H](CCCNC(=N)N)C(=O)N[C@@H](CC(C)C)C(=O)N[C@@H](CC(C)C)C(=O)N[C@@H](CC(C)C)C(=O)N[C@@H](CCC(=O)O)C(=O)N[C@@H](CCC(=O)O)C(=O)N[C@@H](C)C(N)=O [[D-Pro^4, Nle^18,21]-AAHC(4-41)] (H-[dP]PISLDLTFHLLRE[Nle]LE[Nle]ARAEQEAEQAALNRLLLEEA-NH2)",stimulates,stimulates
"CCCC[C@H](NC(=O)[C@H](CCC(=O)O)NC(=O)[C@H](CC(C)C)NC(=O)[C@H](CCCC)NC(=O)[C@H](CCC(=O)O)NC(=O)[C@H](CCCNC(=N)N)NC(=O)[C@H](CC(C)C)NC(=O)[C@H](CC(C)C)NC(=O)[C@H](Cc1c[nH]cn1)NC(=O)[C@H](Cc1ccccc1)NC(=O)[C@@H](NC(=O)[C@H](CC(C)C)NC(=O)[C@H](CC(=O)O)NC(=O)[C@H](CC(C)C)NC(=O)[C@H](CO)NC(=O)[C@@H](NC(=O)[C@@H]1CCCN1C(=O)[C@H]1CCCN1C(=O)[C@H](N)Cc1ccc(O)cc1)[C@@H](C)CC)[C@@H](C)O)C(=O)N[C@@H](C)C(=O)N[C@@H](CCCNC(=N)N)C(=O)N[C@@H](C)C(=O)N[C@@H](CCC(=O)O)C(=O)N[C@@H](CCC(N)=O)C(=O)N[C@@H](CCC(=O)O)C(=O)N[C@@H](C)C(=O)N[C@@H](CCC(=O)O)C(=O)N[C@@H](CCC(N)=O)C(=O)N[C@@H](C)C(=O)N[C@@H](C)C(=O)N[C@@H](CC(C)C)C(=O)N[C@@H](CC(N)=O)C(=O)N[C@@H](CCCNC(=N)N)C(=O)N[C@@H](CC(C)C)C(=O)N[C@@H](CC(C)C)C(=O)N[C@@H](CC(C)C)C(=O)N[C@@H](CCC(=O)O)C(=O)N[C@@H](CCC(=O)O)C(=O)N[C@@H](C)C(N)=O [[D-Tyr^3, D-Pro^4, Nle^18,21]-AHC(3-41)] (H-[dY][dP]PISLDLTFHLLRE[Nle]LE[Nle]ARAEQEAEQAALNRLLLEEA-NH2)",stimulates,stimulates
"CCCC[C@H](NC(=O)[C@H](CCC(=O)O)NC(=O)[C@H](CC(C)C)NC(=O)[C@H](CCCC)NC(=O)[C@H](CCC(=O)O)NC(=O)[C@H](CCCNC(=N)N)NC(=O)[C@H](CC(C)C)NC(=O)[C@H](CC(C)C)NC(=O)[C@H](Cc1c[nH]cn1)NC(=O)[C@H](Cc1ccccc1)NC(=O)[C@@H](NC(=O)[C@H](CC(C)C)NC(=O)[C@H](CC(=O)O)NC(=O)[C@H](CC(C)C)NC(=O)[C@H](CO)NC(=O)[C@@H](NC(=O)[C@@H]1CCCN1C(=O)[C@@H]1CCCN1C(=O)[C@H](N)Cc1ccc(O)cc1)[C@@H](C)CC)[C@@H](C)O)C(=O)N[C@@H](C)C(=O)N[C@@H](CCCNC(=N)N)C(=O)N[C@@H](C)C(=O)N[C@@H](CCC(=O)O)C(=O)N[C@@H](CCC(N)=O)C(=O)N[C@@H](CCC(=O)O)C(=O)N[C@@H](C)C(=O)N[C@@H](CCC(=O)O)C(=O)N[C@@H](CCC(N)=O)C(=O)N[C@@H](C)C(=O)N[C@@H](C)C(=O)N[C@@H](CC(C)C)C(=O)N[C@@H](CC(N)=O)C(=O)N[C@@H](CCCNC(=N)N)C(=O)N[C@@H](CC(C)C)C(=O)N[C@@H](CC(C)C)C(=O)N[C@@H](CC(C)C)C(=O)N[C@@H](CCC(=O)O)C(=O)N[C@@H](CCC(=O)O)C(=O)N[C@@H](C)C(N)=O [[D-Tyr^3, Nle^18,21]-AAHC(3-41)] (H-[dY]PPISLDLTFHLLRE[Nle]LE[Nle]ARAEQEAEQAALNRLLLEEA-NH2)",stimulates,stimulates
"CC[C@H](C)[C@H](NC(=O)[C@@H]1CCCN1C(=O)[C@@H]1CCCN1)C(=O)N[C@@H](CO)C(=O)N[C@@H](CC(C)C)C(=O)N[C@@H](CC(=O)O)C(=O)N[C@@H](CC(C)C)C(=O)N[C@H](C(=O)N[C@@H](CC(C)C)C(=O)N[C@@H](Cc1c[nH]cn1)C(=O)N[C@@H](CC(C)C)C(=O)N[C@@H](CC(C)C)C(=O)N[C@@H](CCCNC(=N)N)C(=O)N[C@@H](CCC(=O)O)C(=O)N[C@@H](CCSC)C(=O)N[C@@H](CC(C)C)C(=O)N[C@@H](CCC(=O)O)C(=O)N[C@@H](CCSC)C(=O)N[C@@H](CCC(=O)O)C(=O)N[C@@H](CCCCNC(=N)N)C(=O)N[C@@H](C)C(=O)N[C@@H](CCC(=O)O)C(=O)N[C@@H](CCC(N)=O)C(=O)N[C@@H](CCC(=O)O)C(=O)N[C@@H](C)C(=O)N[C@@H](CCC(=O)O)C(=O)N[C@@H](CCC(N)=O)C(=O)N[C@@H](C)C(=O)N[C@@H](C)C(=O)N[C@@H](CC(C)C)C(=O)N[C@@H](CC(N)=O)C(=O)N[C@@H](CCCNC(=N)N)C(=O)N[C@@H](CCCCNC(=N)N)C(=O)N[C@@H](CC(C)C)C(=O)N[C@@H](CC(C)C)C(=O)N[C@@H](CCC(=O)O)C(=O)N[C@@H](CCC(=O)O)C(=O)N[C@@H](C)C(N)=O)[C@@H](C)O [[Glu^22, Leu^12, Har^23,36]-AHC(4-41)] (H-PPISLDLTLHLLREMLEME[hArg]AEQEAEQAALNR[hArg]LLEEA-NH2)",stimulates,stimulates
"CCCC[C@H](NC(=O)[C@H](CCC(=O)O)NC(=O)[C@H](CC(C)C)NC(=O)[C@H](CCCC)NC(=O)[C@H](CCC(=O)O)NC(=O)[C@H](CCCNC(=N)N)NC(=O)[C@H](CC(C)C)NC(=O)[C@H](CC(C)C)NC(=O)[C@H](Cc1c[nH]cn1)NC(=O)[C@H](Cc1ccccc1)NC(=O)[C@@H](NC(=O)[C@H](CC(C)C)NC(=O)[C@H](CC(=O)O)NC(=O)[C@H](CC(C)C)NC(=O)[C@H](CO)NC(=O)[C@@H](N)[C@@H](C)CC)[C@@H](C)O)C(=O)N[C@@H](C)C(=O)N[C@@H](CCCNC(=N)N)C(=O)N[C@@H](C)C(=O)N[C@@H](CCC(=O)O)C(=O)N[C@@H](CCC(N)=O)C(=O)N[C@@H](CCC(=O)O)C(=O)N[C@@H](C)C(=O)N[C@@H](CCC(=O)O)C(=O)N[C@@H](CCC(N)=O)C(=O)N[C@@H](C)C(=O)N[C@@H](C)C(=O)N[C@@H](CC(C)C)C(=O)N[C@@H](CC(N)=O)C(=O)N[C@@H](CCCNC(=N)N)C(=O)N[C@@H](CCCNC(=N)N)C(=O)N[C@@H](CC(C)C)C(=O)N[C@@H](CC(C)C)C(=O)N[C@@H](CCC(=O)O)C(=O)N[C@@H](CCC(=O)O)C(=O)N[C@@H](C)C(N)=O [[Nle^18,21, Arg^36]-AAHC(6-41)] (H-ISLDLTFHLLRE[Nle]LE[Nle]ARAEQEAEQAALNRRLLEEA-NH2)",stimulates,stimulates
